Experiments:
[1] = molecular target: recombinant P-TEFb (Cdk9/cyclin T1) (Homo sapiens, UniProt P50750); design: method as in earlier work; settings: preparation of DRB tested earlier; Peng et al (1998) Genes and Dev. 12: 755–762; read-out: IC50 of kinase inhibition; cited from earlier work
large form of P-TEFb [2] = molecular target: T1, large form of P-TEFb (Homo sapiens, UniProt P50750); experiment: Differential salt extraction, loss of large form of P-TEFb in HeLa cells; assay type: cell-based; settings: for IC50: 1 hour treatment
T1 sequence (P50750 whole entry): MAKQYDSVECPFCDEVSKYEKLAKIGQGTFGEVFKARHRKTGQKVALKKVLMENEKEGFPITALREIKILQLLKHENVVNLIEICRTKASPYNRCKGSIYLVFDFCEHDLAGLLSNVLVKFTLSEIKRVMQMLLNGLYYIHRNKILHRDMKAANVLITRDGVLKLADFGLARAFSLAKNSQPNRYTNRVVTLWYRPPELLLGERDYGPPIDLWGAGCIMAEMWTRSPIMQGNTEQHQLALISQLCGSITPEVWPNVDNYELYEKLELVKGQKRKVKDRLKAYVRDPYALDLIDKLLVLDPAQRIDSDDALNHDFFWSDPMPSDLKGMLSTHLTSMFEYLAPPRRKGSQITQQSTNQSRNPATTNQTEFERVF
T1 sequence (O60563 whole entry, further chain): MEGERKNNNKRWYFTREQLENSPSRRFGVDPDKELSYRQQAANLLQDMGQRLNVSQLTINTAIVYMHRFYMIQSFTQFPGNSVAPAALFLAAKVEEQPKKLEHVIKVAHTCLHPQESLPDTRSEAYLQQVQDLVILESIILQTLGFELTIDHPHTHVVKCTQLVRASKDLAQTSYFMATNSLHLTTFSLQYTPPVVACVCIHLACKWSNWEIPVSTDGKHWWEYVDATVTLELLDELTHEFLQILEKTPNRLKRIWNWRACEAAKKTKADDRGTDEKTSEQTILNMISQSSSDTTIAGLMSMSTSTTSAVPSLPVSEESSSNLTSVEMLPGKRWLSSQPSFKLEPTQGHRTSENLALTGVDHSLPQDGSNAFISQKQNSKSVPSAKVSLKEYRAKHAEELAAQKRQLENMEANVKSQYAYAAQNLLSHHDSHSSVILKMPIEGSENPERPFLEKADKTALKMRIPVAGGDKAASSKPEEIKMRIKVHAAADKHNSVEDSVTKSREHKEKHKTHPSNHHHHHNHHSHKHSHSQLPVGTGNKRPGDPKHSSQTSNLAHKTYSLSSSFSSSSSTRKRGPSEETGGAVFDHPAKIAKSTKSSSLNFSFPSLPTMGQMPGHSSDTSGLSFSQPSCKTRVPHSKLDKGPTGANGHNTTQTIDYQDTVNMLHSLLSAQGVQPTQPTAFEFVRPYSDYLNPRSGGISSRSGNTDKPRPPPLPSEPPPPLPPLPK
Description: (§1) The cytosolic extracts were prepared by resuspending the cells in 80 μl of Buffer A (10 mM KCl, 10 mM MgCl2, 10 mM HEPES, 1 mM EDTA, 1 mM DTT, 0.1% PMSF and EDTA-free complete protease inhibitor cocktail (Roche)) with 0.5% NP-40 for 10 minutes on ice. The nuclei were spun down at 5,000 g for 5 minutes and the supernatant was saved as the cytosolic extract (CE). The nuclei were washed once with 200 μl of Buffer A with 0.5% NP-40 and re-pelleted. The nuclei were resuspended in 80 μl of Buffer B (450 mM NaCl, 1.5 mM MgCl2, 20 mM HEPES, 0.5 mM EDTA, 1 mM DTT, 0.1% PMSF and EDTA-free complete protease inhibitor cocktail (Roche)) and incubated on ice for 10 minutes. The lysates were clarified by centrifugation at 20,000 g for 10 minutes. The supernatant was saved as the nuclear extract (NE). Western blotting was performed with one fifth of the samples and the fraction of Cdk9 and cyclin T1 in the cytosolic and nuclear extracts was determined by imaging the chemiluminescent signal using a cooled CCD camera (UVP). The signal was quantitated using LabWorks 4.0 software and the data fit to a logistic dose response curve using TableCurve (Jandel Scientific) to determine the IC50 for loss of the large, low salt extractable form of P-TEFb.

HIV-1p256 [3] = experiment: microbe, parasite or virus in culture; assay type: cell-based; settings: Human immunodeficiency virus 1, HeLa37, 40 h, read-out: IC50 of inhibition of HIV in HeLa 37 cells
Description: Short-term, single hit infectivity studies were performed as previously described. HeLa37 cells were plated in a 48-well tray and triplicate wells were infected with a dual-tropic HIV-1p256 and serial dilutions of P-TEFb inhibitor for 40 hours. The cells were fixed with 75% acetone/25% H2O and immunostained for HIV-1 antigens using human anti-HIV serum (a gift from Dr. Jack Stapleton, Univ. of Iowa) and HRP-conjugated goat anti-human IgG followed by staining with 3-amino-9-ethylcarbazole (AEC). The HIV-1 antigen-positive cells were counted. Experiments were repeated at least three times with each drug concentration in triplicate.

large form of P-TEFb [4] = molecular target: T1, large form of P-TEFb; experiment: Glycerol gradient analysis of large and free forms of P-TEFb in DRB-treated HeLa cells; assay type: cell-based
Description: HeLa cells were grown in 100 ml of DMEM with 10% FCS to a density of 4 × 10^5 cells/ml in spinner flasks. The cells were treated for 1 hour with no P-TEFb inhibitor or serial dilutions of DRB ranging from 0.1 to 10 μM. Cell lysates were prepared in Buffer A (10 mM KCl, 10 mM MgCl2, 10 mM HEPES, 1 mM EDTA, 1 mM DTT, 0.1% PMSF and EDTA-free complete protease inhibitor cocktail (Roche)) containing 150 mM NaCl and 0.5% NP-40. The lysates were clarified by centrifugation at 20,000 g for 10 minutes at 4°C. The supernatant was layered on top of a 5–45% glycerol gradient containing 150 mM NaCl. Gradients were spun at 190,000 g for 16 hours using a SW-55Ti rotor. The fractions were analyzed for the presence of P-TEFb complexes by immunoblotting with anti-cyclin T1 and anti-Cdk9 antibodies (Santa Cruz). Following incubation with the appropriate HRP-conjugated secondary antibodies, the blots were developed using SuperSignal DuraWest (Pierce). The western blots were imaged using a cooled CCD camera (UVP) and the amount of P-TEFb in the large and free form was quantitated using LabWorks 4.0 software.

large form of P-TEFb [5] = molecular target: T1, large form of P-TEFb; experiment: Differential salt extraction, loss of large form of P-TEFb in Jurkat cells; assay type: cell-based; settings: 1 hour treatment, increasing concentrations
Description: as §1

HeLa37 cells = experiment: Cell viability (ATPlite) in HeLa37 cells; assay type: cell-based; settings: performed in parallel to the 40 hour infectivity assay
Description: (§2) The impact of the P-TEFb inhibitors on cell viability was measured by ATPlite (Perkin Elmer). These cytotoxicity studies were performed as recommended by manufacturer utilizing a substrate solution that emits light in a manner proportional to the ATP present in each sample. Cells were plated in a 48-well format. Cells were treated with serial dilutions of the P-TEFb inhibitors and maintained for the indicated period of time. Mammalian cell lysis buffer was added to lyse the cells, followed by addition of the substrate solution. The amount of light produced in each well was measured in a TopCountR Microplate Scintillation and Luminescence Counter (Packard Instruments). Cytotoxicity experiments in HeLa37 cells were repeated at least three times with triplicates of each drug concentration.

[6] = tested on: peripheral blood lymphocytes (PBLs); experiment: Cell viability (ATPLite) in PBLs; assay type: cell-based, human; settings: average of days 4, 8, 12, 16
Description: (§3) Human monocyte derived macrophages (MDMs) and peripheral blood lymphocytes (PBLs) cells were isolated from 350 ml of peripheral blood from healthy, HIV negative donors. Peripheral blood mononuclear cells (PBMCs) were isolated as previously described. Briefly, PBMCs were separated by centrifugation in lymphocyte separation medium (ICN Biomedicals, Solon, Ohio). The separated PBMCs were placed on gelatin and fibronectin-coated flasks in order to separate monocytes from mononuclear cells. Adherent monocytes were lifted with EDTA, washed and plated at a density of 1 × 10^6 per well in 48-well trays for infectivity and cytotoxicity studies. Monocytes were differentiated for 5 days in DMEM with 10% FCS, 10% human serum and 1% penicillin/streptomycin in order to generate monocyte-derived macrophages prior to HIV infections and drug treatment. PBLs were treated with 5 μg/ml of phytohaemagglutinin (PHA) for 72 hours prior to HIV infection and drug treatment. PHA-treated PBLs were plated at a density of 1 × 10^6 per well in 48-well trays and maintained in RPMI 1640 with 10% FCS, 1% Penicillin/Streptomycin and 10 units/ml of recombinant IL-2. Viral infection was performed in MDMs and PBLs by adding 10,000 RT units of HIV-1p256 stock per 1 × 10^6 cells. During long term studies in primary cells, supernatants were collected at 4, 8, 12 and 16 days post-infection, frozen at -80°C until analyzed and media was refreshed.
as §2, with “Cytotoxicity experiments in HeLa37 cells were repeated at least three times with triplicates of each drug concentration.” left out

HIV-1p256 [7] = experiment: Long-term HIV-1 replication in MDMs (RT activity in supernatants); assay type: cell-based; settings: Human immunodeficiency virus 1, pooled data of independent donors; days 4, 8, 12, 16; read-out: average IC50 for inhibition of HIV-1 replication in MDMs
Description: (§4) Peripheral blood mononuclear cells (PBMCs) were isolated as previously described. Briefly, PBMCs were separated by centrifugation in lymphocyte separation medium (ICN Biomedicals, Solon, Ohio). The separated PBMCs were placed on gelatin and fibronectin-coated flasks in order to separate monocytes from mononuclear cells. […] PBLs were treated with 5 μg/ml of phytohaemagglutinin (PHA) for 72 hours prior to HIV infection and drug treatment. […] During long term studies in primary cells, supernatants were collected at 4, 8, 12 and 16 days post-infection, frozen at -80°C until analyzed and media was refreshed. […] Reverse transcriptase (RT) assays were performed on supernatants from HIV-1p256 infected cells as previously described. […] The mixture was incubated at 37°C for 3.5 hours and then blotted onto DE81 paper. The DE81 paper was washed 4 times with 3× SSPE and the amount of radioactivity that was incorporated into negative strand DNA was quantified with an InstantImager (Packard Instruments).

HIV-1p256 [8] = experiment: Long-term HIV-1 replication in PBLs (RT activity in supernatants); assay type: cell-based; settings: average of days 4, 8, 12, 16, read-out: average IC50 for inhibition of viral replication in PBLs
Description: as §4

[9] = tested on: monocyte derived macrophages (MDMs); experiment: Cell viability (ATPLite) in MDMs; assay type: cell-based, human; settings: pooled data of independent donors; days 4, 8, 12, 16
Description: as §3, with “PHA-treated PBLs were plated at a density of 1 × 10^6 per well in 48-well trays and maintained in RPMI 1640 with 10% FCS, 1% Penicillin/Streptomycin and 10 units/ml of recombinant IL-2. Viral infection was performed in MDMs and PBLs by adding 10,000 RT units of HIV-1p256 stock per 1 × 10^6 cells.” left out
The impact of the P-TEFb inhibitors on cell viability was measured by ATPlite (Perkin Elmer). […] The amount of light produced in each well was measured in a TopCountR Microplate Scintillation and Luminescence Counter (Packard Instruments). […]

[10] = Phase I trials, highest tested doses; cited from earlier work
HIV-1 = tested on: HIV-1; design: method as in PMID 11461999; settings: extensive 6 month study; cited from earlier work

Chain of recombinant P-TEFb (Cdk9/cyclin T1) (P50750 whole entry): as the sequence (P50750 whole entry) above
Chain of recombinant P-TEFb (Cdk9/cyclin T1) (O60563 whole entry partner): as the sequence (O60563 whole entry, further chain) above

OC[C@H]1O[C@@H](n2cnc3cc(Cl)c(Cl)cc32)[C@H](O)[C@@H]1O [DRB, 5,6-dichloro-1-beta-D-ribofuranosylbenzimidazole]
IC50 [1]: 900 nM | P-TEFb subunits in cytosolic extracts prepared with low salt lysis buffer (large form of P-TEFb [2]; HeLa cells, 100 μM DRB, 1 hour, untreated approx. 50% in cytosolic extract): not detected | IC50 (large form of P-TEFb [2]; read-out: IC50 for the release of free form of P-TEFb from the large form of the complex, HeLa37 cells, low salt extraction): ~4500 nM | IC50 (large form of P-TEFb [2]; read-out: IC50 of loss of large form from HeLa cells: Cdk9, Cdk9 western blot): 4200 ± 1600 nM | IC50 (large form of P-TEFb [2]; read-out: IC50 of loss of large form from HeLa cells: Cyclin T1, cyclin T1 western blot): 5000 ± 3000 nM | IC50 (HIV-1p256 [3]): 2600 nM | P-TEFb subunits left in the large form of the complex (large form of P-TEFb [4]; 10 μM DRB, 1 hour, without DRB approx. 60% of Cdk9 and 70% of cyclin T1): about 20% | IC50 (large form of P-TEFb [4]; HeLa cells, 1 hour treatment, Cdk9 and cyclin T1 immunoblot of glycerol gradient fractions, read-out: concentration causing a 50% reduction in large form within the cell): ~3000 nM | effect on amount of the large form of P-TEFb (large form of P-TEFb [5]): gradual reduction of the large form | Hela37 cell cytotoxicity (LD50) (HeLa37 cells): 20 µM

CN1CC[C@H](c2c(O)cc(O)c3c(=O)cc(-c4ccccc4Cl)oc23)[C@H](O)C1 [Flavopiridol]
LD50 in PBLs ([6]; donor #1): 143 nM | LD50 in PBLs ([6]; donor #2): 81 nM | LD50 in PBLs ([6]; donor #3): 123 nM | IC50 (HIV-1p256 [3]): 9.5 nM | IC50 (HIV-1p256 [7]): 61 nM | effect on amount of the large form of P-TEFb (large form of P-TEFb [5]): gradual reduction in the amount of the large form | IC50 (HIV-1p256 [8]; Human immunodeficiency virus 1, donor #1): 35 nM | IC50 (HIV-1p256 [8]; Human immunodeficiency virus 1, donor #2): 40 nM | IC50 (HIV-1p256 [8]; Human immunodeficiency virus 1, donor #3): 61 nM | LD50 in MDMs [9]: 99 nM | Hela37 cell cytotoxicity (LD50) (HeLa37 cells): 0.225 µM

CC[C@H](CO)Nc1nc(NCc2ccccc2)c2ncn(C(C)C)c2n1 [Seliciclib]
side effects caused [10]: fatigue and elevated creatinine

CC[C@H](CO)Nc1nc(NCc2ccccc2)c2ncn(C(C)C)c2n1 [roscovitine]
generation of a resistant HIV-1 strain (HIV-1): unsuccessful
